# Measurements published in patent US20190099394A1, “METHODS OF IMPROVING MOTOR FUNCTION USING KETONE SUPPLEMENTATION” (priority 2016, published 2019).
# How the values were obtained:
# [1] = test system: WAG/Rij rats; test: accelerated rotarod test, WAG/Rij rats; assay type: in vivo, rat; details: 2.5 g/kg total oral gavage daily for 7 days, about 45 minutes after treatment, FIG. 6 and FIG. 7
# Experimental: WAG/Rij rats were first acclimated to oral gavage with administration of tap water once daily for a period of 3 days. About 45 minutes after the water gavage on the third day, the animals performed the accelerated rotarod test to establish a baseline. After three trials on the rotarod, blood samples were taken to measure baseline glucose and ketone body levels (blood samples were collected about 60 minutes after the gavage).
# One day later, the rats were divided into 6 groups, and given an oral gavage supplement selected from water, the ketone ester 1,3-butanediol-acetoacetate diester (KE), the ketone ester with medium chain triglyceride (KEMCT), the ketone salt β-hydroxybutyrate mineral salt (KS), the ketone salt with medium chain triglyceride (KSMCT), or a combination of the ketone ester and the ketone salt (KEKS) (Table 3). Supplements containing the ketone ester or the ketone salt alone were provided at a dose of 2.5 g/kg of body weight. For supplements containing two components (e.g., a ketone ester with MCT, a ketone salt with MCT, a ketone ester with a ketone salt), each component was provided at a dose of 1.25 g/kg of body weight (for a total dosage of 2.5 g/kg). The animals were treated every day for 7 days.
# About 45 minutes after the 7th treatment, the rats were evaluated on the accelerated rotarod test. […]
# [2] = test system: Sprague-Dawley rats; test: accelerating rotarod test, four month old Sprague-Dawley rats; assay type: in vivo, rat; details: for motor function (accelerating rotarod) compared to the control group: 5 g/kg once daily oral gavage or diet, at both 24 hours and 7 days after dietary treatment, FIG. 1; for time able to remain on the rotarod relative to controls fed a standard diet only: 24 hours and 7 days, FIG. 2
# Description: Four month old Sprague-Dawley rats were first acclimated to oral gavage with administration of tap water once daily for a period of 5 days. The rats were then divided into 5 groups, and fed either a standard diet (SD), a ketogenic diet (KD), or a standard diet supplemented with a once daily oral gavage of a ketone supplement (Table 1). The ketone supplement was selected from the ketone ester 1,3-butanediol-acetoacetate diester (SD+KE), the ketone salt β-hydroxybutyrate mineral salt (SD+KS), or β-hydroxybutyrate mineral salt and a medium chain triglyceride (SD+KSMCT). Ketone supplements were provided at a dose of 5 g/kg of body weight. Each group of animals was maintained on the respective diets for 7 days. The animals were evaluated for motor performance prior to the beginning of dietary treatment, 24 hours after treatment, and after 7 days of dietary treatment.
# Motor performance was evaluated using the accelerating rotarod test on a Rota Rod
# Rotamex 5 (Columbus Instruments). The rats were placed on the rod of the accelerating rotarod and the time the animals remained on the rod was measured; the rotarod was set to accelerate to 40 rpm over 180 seconds. Prior to the administration of a test, animals were trained on the rotarod for 5 consecutive days. Each day of training consisted of 3 trials, with a 2 minute rest period between each trial. Animals were placed on the rotarod and timed until they fell from the rotating rod.
# The ketone ester, 1,3-butanediol-acetoacetate diester, was synthesized as previously described (Agostino et al., Am J Physiol; 304(10): R829-R836 (2013)). The ketone salt, β-hydroxybutyrate mineral salt (Na^+/K^+-βHB mineral salt) was mixed into a 50% solution by adding approximately 375 mg/g of pure βHB with 125 mg/g of Na^+/K^+. Accordingly, each dose of the mineral salt was equal to about 1000-1500 mg of βHB, depending on the weight of the animal. Both the ketone ester and the ketone salt were developed and synthesized in collaboration with SavInd, Inc. Pharmaceutical grade medium chain triglyceride (MCT) oil (about 65% caprylic triglyceride) was purchased from Now Foods (Bloomingdale, Ill., USA). MCT was mixed in a 1:1 ratio with β-hydroxybutyrate mineral salt to obtain a ketone salt with MCT, and in a 1:1 ratio with 1,3-butanediol-acetoacetate diester to obtain […] with MCT.
# [3] = test system: glucose transporter type 1 (G1D)-deficient mice; test: rotarod test, G1D mice; assay type: in vivo; details: for motor performance on the rotarod test: 6 weeks of feeding
# Description: (§1) A group of 48 G1D mice, aged 2-5 months old, were fed for 10 weeks with either a standard rodent diet (SD), a ketogenic diet (KD), a standard diet supplemented with 10% ketone ester (SD+KE) or a standard diet supplemented with 20% ketone mineral salt (SD+KS).
# [4] = test system: glucose transporter type 1 (G1D)-deficient mice; test: hanging wire test, G1D mice; assay type: in vivo; details: fed for 10 weeks, FIG. 9
# Description: as §1
Compound,motor function (accelerated rotarod) [1],motor function (accelerating rotarod) compared to the control group [2],time able to remain on the rotarod relative to controls fed a standard diet only [2],motor performance on the rotarod test [3],"performance on the rotarod test vs baseline levels ([3]; by 4 weeks of feeding, FIG. 8)",course of improvement on the hanging wire test [4],strength endurance (hanging wire test) [4],motor function on the rotarod test ([3]; 10 weeks of feeding)
"CC(=O)CC(=O)OCCC(C)OC(=O)CC(C)=O (stereo not drawn) [ketone ester, 1,3-butanediol-acetoacetate diester]",not sufficient to improve motor function,improvement in motor function,able to remain on the rotarod for longer periods of time,increase in motor performance,significant increase in performance on the rotarod test,–,–,–
β-hydroxybutyrate mineral salt [ketone salt],not sufficient to improve motor function,improvement in motor function,able to remain on the rotarod for longer periods of time,increase in motor function,–,rapid improvement beginning at week 1,improved,increase in motor function
